Source: the NIST ThermoML archive (doi:10.1016/j.jct.2006.09.008)
Numbers after ± are expanded uncertainties.

Assay: molar heat capacity at constant pressure; mn = molality of the nth substance listed, in mol/kg
Settings: 350 kPa, Liquid

O=[N+]([O-])[O-].O=[N+]([O-])[O-].[Sr+2] [strontium nitrate] + O
molar heat capacity at constant pressure [J/K/mol]
Settings	m1 = 0.0499	m1 = 0.1006	m1 = 0.2005	m1 = 0.4995	m1 = 0.7992	m1 = 0.9995	m1 = 1.502	m1 = 2.003	m1 = 3.001
278.15 K	75.4 ± 0.3	75.15 ± 0.3	74.75 ± 0.3	74.1 ± 0.3	73.96 ± 0.29	74.06 ± 0.3	74.66 ± 0.3	75.65 ± 0.3	77.88 ± 0.31
283.15 K	75.27 ± 0.3	75.05 ± 0.3	74.7 ± 0.3	74.14 ± 0.3	74.04 ± 0.3	74.14 ± 0.3	74.76 ± 0.3	75.76 ± 0.3	77.98 ± 0.31
288.15 K	75.18 ± 0.3	74.99 ± 0.3	74.68 ± 0.3	74.19 ± 0.3	74.11 ± 0.3	74.22 ± 0.3	74.84 ± 0.3	75.84 ± 0.3	78.06 ± 0.31
293.15 K	75.13 ± 0.3	74.95 ± 0.3	74.67 ± 0.3	74.24 ± 0.3	74.18 ± 0.3	74.3 ± 0.3	74.92 ± 0.3	75.92 ± 0.3	78.12 ± 0.31
298.15 K	75.1 ± 0.3	74.94 ± 0.3	74.68 ± 0.3	74.29 ± 0.3	74.25 ± 0.3	74.37 ± 0.3	74.99 ± 0.3	75.99 ± 0.3	78.17 ± 0.31
303.15 K	75.08 ± 0.3	74.93 ± 0.3	74.7 ± 0.3	74.34 ± 0.3	74.31 ± 0.3	74.43 ± 0.3	75.05 ± 0.3	76.04 ± 0.3	78.21 ± 0.31
308.15 K	75.08 ± 0.3	74.94 ± 0.3	74.72 ± 0.3	74.39 ± 0.3	74.37 ± 0.3	74.49 ± 0.3	75.1 ± 0.3	76.09 ± 0.3	78.24 ± 0.31
313.15 K	75.09 ± 0.3	74.95 ± 0.3	74.75 ± 0.3	74.44 ± 0.3	74.42 ± 0.3	74.55 ± 0.3	75.15 ± 0.3	76.13 ± 0.3	78.27 ± 0.31
318.15 K	75.11 ± 0.3	74.98 ± 0.3	74.79 ± 0.3	74.49 ± 0.3	74.48 ± 0.3	74.6 ± 0.3	75.2 ± 0.3	76.17 ± 0.3	78.29 ± 0.31
323.15 K	75.14 ± 0.3	75.01 ± 0.3	74.83 ± 0.3	74.55 ± 0.3	74.54 ± 0.3	74.66 ± 0.3	75.25 ± 0.3	76.2 ± 0.3	78.31 ± 0.31
328.15 K	75.17 ± 0.3	75.05 ± 0.3	74.87 ± 0.3	74.6 ± 0.3	74.59 ± 0.3	74.71 ± 0.3	75.29 ± 0.3	76.24 ± 0.3	78.32 ± 0.31
333.15 K	75.21 ± 0.3	75.1 ± 0.3	74.92 ± 0.3	74.66 ± 0.3	74.65 ± 0.3	74.76 ± 0.3	75.33 ± 0.3	76.27 ± 0.3	78.34 ± 0.31
338.15 K	75.26 ± 0.3	75.15 ± 0.3	74.98 ± 0.3	74.72 ± 0.3	74.71 ± 0.3	74.82 ± 0.3	75.37 ± 0.3	76.3 ± 0.3	78.36 ± 0.31
343.15 K	75.32 ± 0.3	75.21 ± 0.3	75.04 ± 0.3	74.78 ± 0.3	74.77 ± 0.3	74.87 ± 0.3	75.41 ± 0.3	76.33 ± 0.3	78.38 ± 0.31
348.15 K	75.39 ± 0.3	75.27 ± 0.3	75.11 ± 0.3	74.85 ± 0.3	74.83 ± 0.3	74.93 ± 0.3	75.46 ± 0.3	76.36 ± 0.3	78.41 ± 0.31
353.15 K	75.46 ± 0.3	75.34 ± 0.3	75.18 ± 0.3	74.91 ± 0.3	74.89 ± 0.3	74.98 ± 0.3	75.5 ± 0.3	76.4 ± 0.3	78.43 ± 0.31
358.15 K	75.54 ± 0.3	75.42 ± 0.3	75.25 ± 0.3	74.98 ± 0.3	74.95 ± 0.3	75.04 ± 0.3	75.55 ± 0.3	76.44 ± 0.3	78.47 ± 0.31
363.15 K	75.62 ± 0.3	75.5 ± 0.3	75.33 ± 0.3	75.06 ± 0.3	75.02 ± 0.3	75.11 ± 0.3	75.6 ± 0.3	76.48 ± 0.31	78.52 ± 0.31
368.15 K	75.71 ± 0.3	75.59 ± 0.3	75.42 ± 0.3	75.14 ± 0.3	75.09 ± 0.3	75.17 ± 0.3	75.65 ± 0.3	76.53 ± 0.31	78.57 ± 0.31
373.15 K	75.81 ± 0.3	75.69 ± 0.3	75.51 ± 0.3	75.22 ± 0.3	75.17 ± 0.3	75.24 ± 0.3	75.71 ± 0.3	76.59 ± 0.31	78.64 ± 0.32
378.15 K	75.92 ± 0.3	75.8 ± 0.3	75.61 ± 0.3	75.31 ± 0.3	75.25 ± 0.3	75.32 ± 0.3	75.78 ± 0.3	76.65 ± 0.31	78.72 ± 0.32
383.15 K	76.04 ± 0.3	75.91 ± 0.3	75.72 ± 0.3	75.4 ± 0.3	75.33 ± 0.3	75.4 ± 0.3	75.85 ± 0.3	76.72 ± 0.31	78.82 ± 0.32
388.15 K	76.16 ± 0.3	76.03 ± 0.3	75.83 ± 0.3	75.5 ± 0.3	75.42 ± 0.3	75.49 ± 0.3	75.93 ± 0.3	76.8 ± 0.31	78.94 ± 0.32
393.15 K	76.3 ± 0.31	76.16 ± 0.3	75.95 ± 0.3	75.61 ± 0.3	75.52 ± 0.3	75.58 ± 0.3	76.02 ± 0.31	76.89 ± 0.31	79.07 ± 0.32
